Converted amounts (≈) assume the structure as drawn. Where a SMILES comes first, the peptide text is derived from it.
Key:
[1] = tested on: Candida albicans (NCPF 1467); type: cell-based
Procedure: (§1) The minimal inhibitory concentrations (MICs) and minimum bactericidal concentrations (MBCs) were evaluated to determine the antimicrobial activity of synthetic peptides. The microorganisms employed in the study are two kinds of Gram-negative bacteria, Escherichia coli (NCTC 10418) and Pseudomonas aeruginosa (ATCC 27853), three kinds of Gram-positive bacteria, Staphylococcus aureus (NCTC 10788), Methicillin-resistant Staphylococcus aureus (MRSA, ATCC 12493) and Enterococcus faecalis (NCTC 12697) and a yeast, Candida albicans (NCPF 1467), as indicated previously. […] The sterilised broth medium was used as the positive control and the microorganism cultured in the medium only was treated as the negative control. […] The MBC results were defined as the lowest bactericidal concentrations of peptide. The antimicrobial activity of peptides was tested by monitoring the absorbance at 550 nm using an ELISA plate reader (Biolise BioTek EL808, Winooski, VT, USA).

[2] = tested on: Enterococcus faecalis (NCTC 12697); type: cell-based
Procedure: as §1

[3] = tested on: Escherichia coli (NCTC 10418); type: cell-based
Procedure: as §1

[4] = tested on: Methicillin-resistant Staphylococcus aureus (MRSA, ATCC 12493); type: cell-based
Procedure: as §1

[5] = tested on: Pseudomonas aeruginosa (ATCC 27853); type: cell-based
Procedure: as §1

[6] = tested on: Staphylococcus aureus (NCTC 10788); type: cell-based
Procedure: as §1

horse red blood cells = test: Haemolysis assay and therapeutic index; settings: 2% horse red blood cells in PBS, 2 h, 37 °C, absorbance 570 nm; best-fitted curve
Procedure: The haemolytic activity of synthetic peptides was determined using the horse red blood cells that were extracted from the de-fibroblast whole horse blood (TCS Biosciences Ltd. Buckingham, UK). […] Briefly, the red blood cells were harvested and washed using PBS until all broken red blood cells were removed. Then, a 2% cell suspension was prepared using PBS. The peptide concentrations were set as antimicrobial activity assay and mixed with the red blood cells in the microcentrifuge tubes. After a 2 h-incubation at 37 °C, the tubes were centrifuged and the suspension was transferred into a clear 96 well plate. The absorbance of released haemoglobin in the suspension was detected at 570 nm by a plate reader. Besides, the red blood cells treated with PBS and 1% Triton X-100 were used as the negative and positive controls, respectively. […] The therapeutic index (TI) was further determined as below:(1) TI=HC50/product of n MICsn,

[7] = tested on: Galleria mellonella larvae; test: Toxicity to uninfected Galleria mellonella larvae; type: in vivo; settings: uninfected G. mellonella larvae injected with drug; n = 30 per group; vancomycin 20 mg/kg
Procedure: The in vivo study of antimicrobial activity of the peptides was evaluated using the larvae of Galleria mellonella, which was described in the previous study with minor modifications. The larvae of Galleria mellonella (250 ± 25 mg; Livefood UK Ltd., Rooks Bridge, UK) were selected. The MRSA culture was prepared the same way as the antimicrobial activity assay. Then, MRSA cells were collected and washed, and further diluted to 10^8 CFU/mL in the saline. Ten µL of MRSA suspension was injected to the larvae and placed in a petri dish. After 2 h, the MRSA infected larvae were administrated with 10 µL of peptides (25 mg/kg, 50 mg/kg) by injection. Saline and vancomycin (20 mg/kg) (Sigma-Aldrich, UK) were used as the negative control and positive control, respectively. Each sample group contained 10 larvae, and the experiment was repeated three times (30 larvae for each group in total). The survival curves were achieved using Prism (Version 6.0; GraphPad Software Inc., San Diego, CA, USA) and the log-rank test was employed to analyze the significance between the different treatments and the controls. * (p < 0.05), ** (p < 0.01) and *** (p < 0.001) represent statistical significance.
Figure A9 Larvae without any MRSA infection were injected with peptides and vancomycin respectively to access the cytotoxicity of the drugs to larvae bodies. […] Effect of treatment of G. mellonella larvae (n = 30 for each group) without any infection and only treated with 5 µL vancomycin (20 mg/kg), OSd, OSe and OSf.

SMILES | MBC ([1]; NCPF 1467, 18 h) [µM] | MIC ([1]; NCPF 1467, 24 h) [µM] | MBC ([2]; NCTC 12697, 18 h) [µM] | MIC ([2]; NCTC 12697, 24 h) [µM] | MBC ([3]; NCTC 10418, 18 h) [µM] | MIC ([3]; NCTC 10418, 24 h) [µM] | MBC ([4]; ATCC 12493, 18 h) [µM] | MIC ([4]; ATCC 12493, 24 h) [µM] | MBC ([5]; ATCC 27853, 18 h) [µM] | MIC ([5]; ATCC 27853, 24 h) [µM] | MBC ([6]; NCTC 10788, 18 h) [µM] | MIC ([6]; NCTC 10788, 24 h) [µM] | HC50 (concentration causing 50% haemolysis of the red blood cells) (horse red blood cells) [µM] | toxicity to larvae without MRSA infection [7]
CC[C@H](C)[C@H](NC(=O)CNC(=O)[C@@H]1CCCN1C(=O)[C@H](CC(C)C)NC(=O)[C@@H](N)Cc1ccccc1)C(=O)N[C@@H](CC(C)C)C(=O)N[C@@H](CCCCN)C(=O)N[C@H](C(=O)N[C@@H](C)C(=O)N[C@@H](C)C(=O)N[C@@H](CCCCN)C(N)=O)C(C)C [OSb] (H-FLPGILKVAAK-NH2) | > 512 | 512 (≈ 592 µg/mL) | > 512 | > 512 | > 512 | > 512 | > 512 | > 512 | > 512 | > 512 | > 512 | 256 (≈ 296 µg/mL) | 381.4 | 
CN[C@H](CC(C)C)C(=O)N[C@H]1C(=O)N[C@@H](CC(N)=O)C(=O)N[C@H]2C(=O)N[C@H]3C(=O)N[C@H](C(=O)N[C@H](C(=O)O)c4cc(O)cc(O)c4-c4cc3ccc4O)[C@H](O)c3ccc(c(Cl)c3)Oc3cc2cc(c3O[C@@H]2O[C@H](CO)[C@@H](O)[C@H](O)[C@H]2O[C@H]2C[C@](C)(N)[C@H](O)[C@H](C)O2)Oc2ccc(cc2Cl)[C@H]1O [vancomycin, reference compound] |  |  |  |  |  |  |  |  |  |  |  |  |  | No noticeable cytotoxicity
